Measured values published in paper PMC5667506, “Potent and selective inhibition of SH3 domains with dirhodium metalloinhibitors” (Chemical Science, 2015).
Rh2(OAc)3 = dirhodium(II) triacetate, bound to the side-chain carboxylate

How the values were obtained:
Lck SH3 domain = target: T1, Lck SH3 domain (Homo sapiens, UniProt P06239); experiment: ITC binding to Lck SH3 domain
T1 construct: fyn, yes, lck, and src SH3 protein domains were prepared following published procedures; made in house
Procedure: (§1) All chemical reagents were purchased from Sigma-Aldrich and were used without further purification. […]
ITC analysis. ITC experiments were carried out on a VP-ITC instrument (MicroCal) at 25 °C. Titrations of 275 μM peptide into 18 μM SH3 domain proteins were used for all titrations, except for the titration of S2ERh into Lyn SH3 domain, where the lower concentrations of 69 µM S2ERh peptide and 4 µM Lyn SH3 were used to attain a c-value for the titration within the accepted limts for ITC experiments ([…]).3
Heats of dilutions were measured independently for each experiment by titrating 275 μM peptide into buffer (20 mM phosphate buffer, pH 7, 150 mM NaCl, 1 mM EDTA). All experimental data were fitted using a one set of sites binding model in Origin software (MicroCal) except for the data with Hck SH3 domain. With Hck only, the non-peptide specific binding of dirhodium tetraacetate to Hck SH3 domain could not be treated as negligible, despite the very weak interaction (88 µM), due to the larger enthalpy contribution observed for non-specific binding to this SH3 domain, so the titrations of peptide into Hck were fitted using a 2 set of sites binding model where the stoichiometry for the second set of sites was fixed at 2.0. […]
Known compounds and proteins. […]

[1] = target: T2, Full-length Lyn kinase (GST-tagged Lyn B) (Homo sapiens, UniProt P07948); experiment: Lyn kinase activation assay (ADP-Glo Kinase Assay); assay type: biochemical; conditions: 74 nM Lyn, 5 min
T2 construct: Full-length Lyn kinase (74 nM) was treated with substrate peptide and ATP; purchased Promega
T2 sequence (P07948 1-491 isoform P07948-2): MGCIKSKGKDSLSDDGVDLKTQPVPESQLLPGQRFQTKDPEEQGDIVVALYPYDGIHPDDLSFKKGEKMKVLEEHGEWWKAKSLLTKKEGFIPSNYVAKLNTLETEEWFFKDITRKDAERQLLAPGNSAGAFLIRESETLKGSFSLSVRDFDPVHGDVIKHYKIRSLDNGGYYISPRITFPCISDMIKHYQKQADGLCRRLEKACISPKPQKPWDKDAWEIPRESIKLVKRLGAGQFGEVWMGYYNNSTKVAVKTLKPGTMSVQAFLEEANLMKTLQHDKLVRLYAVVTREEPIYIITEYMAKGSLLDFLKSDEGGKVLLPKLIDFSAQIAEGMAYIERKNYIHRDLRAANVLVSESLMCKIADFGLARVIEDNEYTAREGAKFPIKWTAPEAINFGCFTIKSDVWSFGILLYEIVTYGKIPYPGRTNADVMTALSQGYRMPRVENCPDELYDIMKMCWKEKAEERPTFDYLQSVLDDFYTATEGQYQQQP
Procedure: We examined phosphorylation of a peptide substrate at low enzyme concentration (0.074 μM) and short reaction time (t = 5 min) to minimize the alternative autophosphorylation activation pathway (Fig. 6). Kinase activation with traditional ligands has typically required high ligand concentrations (∼1 mM) to overcome the intramolecular nature of the SH3–kinase domain interaction.
Fig. 6 Activation of Lyn kinase activity by a metallopeptide, S2E^Rh, and the parent peptide, S2E. […] Full-length Lyn kinase (74 nM) was treated with substrate peptide and ATP. Kinase activity was measured after 5 min in an adaptation of reported methods.[5] See ESI ^† for details.
as §1
Kinase assay. ATP turnover by Lyn was measured using the ADP-GloTM Kinase Assay (Promega) according to the manufacturer’s protocol. Briefly, final concentrations of 72 μM ATP, 74 nM Lyn (GST-tagged Lyn B), and 240 μM substrate peptide (all from Promega) were combined in buffer (40 mM Tris, 50 μM dithiothreitol, 2 mM MnCl2 and 0.1 mg/mL BSA at pH 7.5) with a solution of the desired treatment (or control) in the same buffer for a final reaction volume of 5 µL. The kinase reaction was allowed to proceed at room temp. for 5 min from addition of ATP before the start of the ADP-Glo protocol halted the reaction. Chemiluminescence data were acquired on a Tecan Infinite M1000 microplate reader in white 384 well low volume plates (Corning Costar 3674) with an integration time of 250 ms per well. […]

T1 sequence (P06239 61-121 limits assumed): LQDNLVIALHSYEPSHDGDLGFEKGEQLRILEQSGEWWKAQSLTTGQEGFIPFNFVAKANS

Kd (Lck SH3 domain; 25 °C) | Stoichiometry (Lck SH3 domain) | -TΔS (Lck SH3 domain; 25 °C) | ΔG (Lck SH3 domain; 25 °C) | ΔH (Lck SH3 domain; 25 °C) | concentration above which slight activation is seen [1] | concentration at which complete activation response was achieved [1] | concentration giving strong Lyn activation [1] | Substance
481 nM |  |  |  |  |  |  |  | AcVELARRPLPPLPN-NH2 (Ac-VE(Rh2(OAc)3)LARRPLPPLPN-NH2; also: metal complex: Glu2 carboxylate bound to dirhodium(II) triacetate) [S2E^Rh, rhodium(II) metallopeptide made from S2E peptide (Ac…-NH2) and Rh2(tfa)(OAc)3]
 | 1.1 | 2.6 kcal/mol | -8.6 kcal/mol | -11.2 kcal/mol | above 100 μM | 630 nM | 200 nM | AcVELARRPLPPLPN-NH2 [S2E^Rh]
